Here are results for 4 molecules from ChEMBL document CHEMBL1201862, “PubChem BioAssay data set” (2004).

The structures appear in SMILES notation.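 Assay format: 96-well plates, 48-hour exposure. Abbreviation: GI50, concentration required for 50% inhibition of growth.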 Active and inactive are the calls of the source. Cut-off read from the data, not from the text of the source: active = GI50 up to about 1.1 µM and inactive = higher. Bounds are passed on as bounds.

Holding throughout (assay): NCI tumour cell line growth inhibition, 48 h
Assay [1] deals with 786-0.
Assay [2] deals with A498.
Assay [3] deals with A549.
For assay [4], the system named is CAKI-1.
Assay [5] has as its system COLO 205.
Assay [6] has as its system HCT-116.
Assay [7] concerns HCT-15.
Assay [8] has as its system Hs-578T.
Assay [9] concerns MDA-MB-435.
Assay [10] deals with NCI-H226.
Assay [11] concerns SK-MEL-28.
Assay [12] relates to SK-MEL-5.
In assay [13] the test system is T47D.
For assay [14], the system named is TK-10.
In assay [15] the test system is U-251.
Assay [16] relates to UACC-257.
In assay [17] the test system is MOLT-4.
The test system of assay [18] is OVCAR-5.
For assay [19], the system named is SF-295.
Assay [20] relates to SK-OV-3.

For `COc1cc(OC)cc(-n2c(N)c(-c3nc4ccccc4n3C)c3ccc([N+](=O)[O-])cc3c2=O)c1`, the GI50 in [1] was 64.7 µM (inactive); in [2] it was > 100 µM (inactive); in assay [3] it was > 100 µM (inactive); in assay [4], > 100 µM (inactive); in [5] it was > 100 µM (inactive); in assay [6], > 100 µM (inactive). In addition, the GI50 in [7] is more than 100 µM; in [8], 26.4 µM (inactive); in [9] it was > 100 µM (inactive); in assay [10], 70.6 µM (inactive); in assay [11], > 100 µM (inactive); in [12] it was > 100 µM (inactive). For the same molecule, the GI50 in assay [13] was > 100 µM (inactive); in assay [14] it was > 100 µM (inactive); in assay [15], 46.8 µM (inactive); in assay [16], > 100 µM (inactive).

Turning to `O=C(NNc1nc(-c2ccccc2)cs1)C(F)(F)F`, the GI50 in assay [1] was > 100 µM (inactive); in [2], 37.1 µM (inactive); in [3] it was 39.2 µM (inactive); in assay [4] it was 45.8 µM (inactive); in assay [5], 35.8 µM (inactive); in [6] it was 47.3 µM (inactive). Moreover, the GI50 in assay [7] is 57.3 µM; in assay [8], 15.9 µM (inactive); in assay [9], 34 µM (inactive); in [17], 20 µM (inactive); in [10], 20.5 µM (inactive); in assay [18], > 100 µM (inactive). The GI50 was 29.5 µM (inactive) in [19]; 25.8 µM (inactive) in [11]; 35.3 µM (inactive) in assay [12]; 61.1 µM (inactive) in assay [20]; 23.9 µM (inactive) in assay [13]; 26.3 µM (inactive) in assay [15]. Further, the GI50 in assay [16] was 44.3 µM (inactive).

Turning to `Cn1c(=O)c2c(nc3n(Cc4ccccc4)c(=O)c(Br)cn23)n(C)c1=O`, the GI50 in assay [1], in assay [2], in assay [3], in [4], in [5] and in [6] was > 100 µM (inactive) each time. For the same molecule, the GI50 in assay [7] was more than 100 µM; in [8] it was > 100 µM (inactive); in assay [9], > 100 µM (inactive); in assay [17], > 100 µM (inactive); in assay [10], > 100 µM (inactive); in [18], > 100 µM (inactive). Further, the GI50 in [19], in [11], in assay [12], in [13], in assay [14] and in [15] was > 100 µM (inactive) in each case. Moreover, in assay [16], the GI50 is > 100 µM (inactive).

For `CC1CC/C(=C\c2ccc(F)cc2)C2=C1C(c1ccc(F)cc1)N1C(=O)CSC1=N2` (configuration not stated), the GI50 in assay [1] is > 100 µM (inactive); in [2] it was 57 µM (inactive); in [4], > 100 µM (inactive); in assay [5], > 100 µM (inactive); in assay [6], 50 µM (inactive); in assay [7], 43.3 µM. For the same molecule, the GI50 is > 100 µM (inactive) in assay [8]; 91 µM (inactive) in assay [9]; 6.55 µM (inactive) in assay [17]; 53 µM (inactive) in assay [10]; 45.6 µM (inactive) in assay [19]; > 100 µM (inactive) in assay [11]. Further, the GI50 in assay [12] is 40 µM (inactive); in assay [20] it was > 100 µM (inactive); in assay [13], 45.1 µM (inactive); in assay [14] it was > 100 µM (inactive); in [15] it was 93.3 µM (inactive); in assay [16], 62.1 µM (inactive).
